Source: US8097440B1, “Engineered microorganisms capable of producing target compounds under anaerobic conditions” (Gevo, Inc., priority 2008, dated 2012)
Changes are numbered by the printed parent chain. In names and notes the source's numbering stands.

How the values were obtained:
[1] = molecular target: T1, E. coli KARI Ec_IlvC variant Ec_IlvC^P2D1-A1-his6 (Ec_IlvC^P2D1-his6 with K433E), SEQ ID NO: 42 (Escherichia coli, UniProt P05793, A71S/D146G/G185R/K433E/Q110V/R76D/S78D); test: KARI assay, purified Ec_IlvC^P2D1-A1-his6; type: biochemical; conditions: expressed in yeast GEVO1186, purified
T1 sequence (P05793 with tags, fused parts or gaps A71S/R76D/S78D/Q110V/D146G/G185R/K433E): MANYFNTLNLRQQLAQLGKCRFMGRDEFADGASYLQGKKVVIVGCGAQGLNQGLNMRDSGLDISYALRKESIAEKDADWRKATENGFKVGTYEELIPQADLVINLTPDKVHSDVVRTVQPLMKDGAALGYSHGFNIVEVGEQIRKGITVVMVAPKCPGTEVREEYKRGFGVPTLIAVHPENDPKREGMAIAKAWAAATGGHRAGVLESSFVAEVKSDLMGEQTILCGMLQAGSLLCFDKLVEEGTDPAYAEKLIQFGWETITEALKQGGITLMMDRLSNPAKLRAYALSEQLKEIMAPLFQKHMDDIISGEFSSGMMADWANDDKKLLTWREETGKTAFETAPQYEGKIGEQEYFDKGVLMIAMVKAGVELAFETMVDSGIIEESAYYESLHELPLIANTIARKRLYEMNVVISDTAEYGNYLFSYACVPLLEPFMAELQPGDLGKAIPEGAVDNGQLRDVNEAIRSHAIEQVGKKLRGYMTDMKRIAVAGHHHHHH
Experimental: (§1) KARI cuvette assay: KARI activity was assayed kinetically by monitoring the decrease in NAD(P)H concentration by measuring the absorbance at 340 nm. A reaction buffer was prepared containing 250 mM potassium phosphate pH 7, 1 mM DTT and 10 mM MgCl2. Cell pellets were resuspended (0.25 g wet weight/mL buffer) in 250 mM potassium phosphate (KPi) buffer containing 1 mM DTT and 10 mM MgCl2. The resuspended cells were lysed by sonication for 1 min with a 50% duty cycle and pelleted at 11000×g and 4° C. for 15 min. A reaction mixture consisting of 910 μl reaction buffer, 50 μl acetolactate, and 20 μl lysate was prepared in a cuvette. The reaction was initiated by addition of 20 μL of 10 mM NAD(P)H. A substrate free control was conducted using reaction buffer without the addition of acetolactate.
(§2) Purification of KARI: Cell pellets used for purification were resuspended in purification buffer A (20 mM Tris, 20 mM imidazol, 100 mM NaCl, 10 mM MgCl2, pH 7.4). KARI was purified by IMAC (Immobilized metal affinity chromatography) over a 1 ml Histrap High Performance (histrap HP) column pre-charged with Nickel (GE Healthcare) using an Akta FPLC system (GE Healthcare). […]

[2] = molecular target: T2, Escherichia coli KARI (ketol-acid reductoisomerase) Ec_IlvC^his6, wild type IlvC (SEQ ID NO: 13) with his6-tag, SEQ ID NO: 15 (Escherichia coli, UniProt P05793); test: KARI cuvette assay, purified Ec_IlvC^his6 (parent / wild type); type: biochemical, E. coli; conditions: purified; acetolactate as substrate
T2 sequence (P05793 with tags, fused parts or gaps): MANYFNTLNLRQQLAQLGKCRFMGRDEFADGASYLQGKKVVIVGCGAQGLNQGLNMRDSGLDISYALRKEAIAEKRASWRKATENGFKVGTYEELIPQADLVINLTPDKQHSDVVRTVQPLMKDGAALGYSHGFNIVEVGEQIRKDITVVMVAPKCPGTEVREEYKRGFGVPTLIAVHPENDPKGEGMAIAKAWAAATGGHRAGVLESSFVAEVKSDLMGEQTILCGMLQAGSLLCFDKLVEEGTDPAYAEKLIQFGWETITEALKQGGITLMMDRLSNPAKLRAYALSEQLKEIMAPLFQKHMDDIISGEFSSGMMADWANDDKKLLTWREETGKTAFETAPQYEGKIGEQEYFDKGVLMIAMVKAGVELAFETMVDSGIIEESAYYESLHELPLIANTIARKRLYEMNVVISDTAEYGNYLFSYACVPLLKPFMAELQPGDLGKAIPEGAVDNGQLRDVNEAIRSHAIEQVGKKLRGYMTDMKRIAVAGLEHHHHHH
Experimental: as §1, with “The reaction was initiated by addition of 20 μL of 10 mM NAD(P)H. A substrate free control was conducted using reaction buffer without the addition of acetolactate.” left out
Only 20% of the enzymes of the recombination library were active on NADH. After screening 1,000 clones using the NADH depletion assay at 340 nm, 26 KARI variants were selected for a rescreen by the high-throughput assay described in Example 14 and eight thereof were expressed in 25 ml LBamp medium in shake flasks according to the protocol for cell growth and protein expression in shake flasks as described in Example 14, purified according to the protocol for purification of KARI enzymes as described in Example 14, and NAD(P)H depletion at 340 nm was measured again. […] The KM values of variants Ec_llvC^2H10-his6 and Ec_llvC^6E6-his6 were measured and the catalytic efficiencies were calculated.

[3] = molecular target: T3, E. coli KARI Ec_IlvC variant Ec_IlvC^S78D-his6 (S78D), SEQ ID NO: 17 (Escherichia coli, UniProt P05793, S78D); test: KARI cuvette assay, purified Ec_IlvC^S78D-his6; type: biochemical; conditions: from 1075 μM to 130 μM
T3 sequence (P05793 with tags, fused parts or gaps S78D): T2 sequence (P05793 with tags, fused parts or gaps) with S78D
Experimental: as §1, §2

[4] = test system: Lactococcus lactis alcohol dehydrogenase Ll_AdhA, SEQ ID NO: 67; conditions: NADPH as cofactor; cited from earlier work
[5] = substrate: CC(C)C=O; test: Alcohol dehydrogenase kinetic assay, Ec_YqhD; type: biochemical, E. coli; conditions: other: NADPH as cofactor; conversion to isobutanol
Experimental: E. coli strain GEVO1745 was transformed by electroporation with one of plasmids pGV1705-A, pGV1748-A, pGV1749-A, or pGV1778-A. 50 mL of TB medium (23.1 g/L KH2PO4, 125.4 g/L K2HPO4, 12 g/L Bacto-tryptone, 24 g/L yeast extract, 4 ml/L glycerol) were inoculated to an initial OD600 of 0.2 using a 3 mL overnight LB culture of a single colony. The 50 mL culture was allowed to grow for 3-4 hrs at 250 rpm and 37° C. Protein expression was induced at an OD600 of 2-2.5 by the addition of IPTG to a final concentration of 1 mM. After the addition of IPTG, protein expression was allowed to continue for 20-24 hours at 225 rpm and 25° C.
Alcohol dehydrogenase (ADH) activity was assayed kinetically by monitoring the decrease in NAD(P)H concentration by measuring the absorbance at 340 nm. A reaction buffer was prepared containing 0.1 M potassium phosphate, 0.4 mM NAD(P)H, 10 mM isobutyraldehyde, 1 mM DTT, and 1 mM PMSF. Cell pellets were resuspended in 0.1 M potassium phosphate buffer containing 1 mM DTT and 1 mM PMSF at one fifth of the culture volume, i.e. 10 mL resuspension buffer for cell pellet from a 50 mL culture. The resuspended cells were lysed by sonication for 1 min with a 50% duty cycle. The reaction was initiated by the addition of 0.5 mL of the reaction buffer to 0.5 mL of clarified lysate in a cuvette. […]

[6] = substrate: NC(=O)C1=CN([C@@H]2O[C@H](COP(=O)(O)OP(=O)(O)OC[C@H]3O[C@@H](n4cnc5c(N)ncnc54)[C@H](O)[C@@H]3O)[C@@H](O)[C@H]2O)C=CC1; test: KARI cuvette assay, purified Ec_IlvC^S78D-his6; type: biochemical, E. coli
Experimental: as §1
(§3) Purification of KARI: Cell pellets used for purification were resuspended in purification buffer A (20 mM Tris, 20 mM imidazol, 100 mM NaCl, 10 mM MgCl2, pH 7.4). KARI was purified by IMAC (Immobilized metal affinity chromatography) over a 1 ml Histrap High Performance (histrap HP) column pre-charged with Nickel (GE Healthcare) using an Akta FPLC system (GE Healthcare). The column was equilibrated with four column volumes (cv) of buffer A. After injecting the crude extract, the column was washed with buffer A for 2 cv, followed by a wash step with a mixture of 10% elution buffer B (20 mM Tris, 300 mM imidazol, 100 mM NaCl, 10 mM MgCl2, pH 7.4) for 5 cv. KARI variants were eluted at 40% buffer B and stored at 4° C.
(§4) Five individual site saturation libraries were generated and electro-competent E. coli BL21(DE3) cells were transformed with the desalted ligation mixtures. 88 clones of each library were screened for NAD(P)H depletion at 340 nm in microplates. Clones with an improved NADH/NADPH consumption ratio while maintaining or increasing their NADH activity were chosen for a rescreen. Variants that passed the rescreen were sequenced, expressed in shake flasks, purified, and characterized. […]

[7] = substrate: NC(=O)C1=CN([C@@H]2O[C@H](COP(=O)(O)OP(=O)(O)OC[C@H]3O[C@@H](n4cnc5c(N)ncnc54)[C@H](OP(=O)(O)O)[C@@H]3O)[C@@H](O)[C@H]2O)C=CC1; test: KARI cuvette assay, purified Ec_IlvC^S78D-his6; type: biochemical, E. coli; conditions: other: purified
Experimental: as §1, §3, §4

With NC(=O)C1=CN([C@@H]2O[C@H](COP(=O)(O)OP(=O)(O)OC[C@H]3O[C@@H](n4cnc5c(N)ncnc54)[C@H](OP(=O)(O)O)[C@@H]3O)[C@@H](O)[C@H]2O)C=CC1 [NADPH, nicotinamide adenine dinucleotide phosphate] as the molecule, how does the Km [1] read?
Its Km is over 1430 µM.

What about the kcat/KM [1] of the same molecule?
Its kcat/KM is under 377 M^−1 * S^−1.

And the kcat/KM [2]?
Its kcat/KM is 87,300 M^−1 * s^−1.

And the “decrease of KM value compared to wild-type” value [3]?
The value was 16 fold.

And the “activity when tested with NADPH as a cofactor” value [4]?
Its value is “^adid not show any detectably activity when tested with NADPH as a cofactor”.

B1: E. coli alcohol dehydrogenase Ec_YqhD, SEQ ID NO: 69 (Escherichia coli K-12) (protein)
chain: MNNFNLHTPTRILFGKGAIAGLREQIPHDARVLITYGGGSVKKTGVLDQVLDALKGMDVLEFGGIEPNPAYETLMNAVKLVREQKVTFLLAVGGGSVLDGTKFIAAAANYPENIDPWHILQTGGKEIKSAIPMGCVLTLPATGSESNAGAVISRKTTGDKQAFHSAHVQPVFAVLDPVYTYTLPPRQVANGVVDAFVHTVEQYVTKPVDAKIQDRFAEGILLTLIEDGPKALKEPENYDVRANVMWAATQALNGLIGAGVPQDWATHMLGHELTAMHGLDHAQTLAIVLPALWNEKRDTKRAKLLQYAERVWNITEGSDDERIDAAIAATRNFFEQLGVPTHLSDYGLDGSSIPALLKKLEEHGMTQLGENHDITLDVSRRIYEAAR
For B1, which Km [5] is on record?
The Km was 250 µM.

B2: E. coli KARI Ec_IlvC variant Ec_IlvC^S78D-his6 (S78D), SEQ ID NO: 17 (Escherichia coli K-12; S78D) (protein)
chain: T2 sequence (P05793 with tags, fused parts or gaps) with S78D
What does the source list for B2?
kcat/Km ([6]; other: purified, acetolactate as substrate): 27,600 M^−1 * s^−1; kcat/Km ([6]; with NADH): 3770 M⁻¹ s⁻¹; Km [7]: 130 µM
